Results as given in patent US5665760A, “Lyophilized thioxanthenone antitumor agents” (priority 1995, dated 1997).

What was measured:
Type in all cases: in vivo
[1] = tested on: P388/adriamycin resistant leukemia; assay: P388/adriamycin resistant leukemia, cells implanted i.v.
[2] = tested on: pancreatic ductal adenocarcinoma #03; assay: antitumor activity in mice against pancreatic ductal adenocarcinoma #03 (Panc 03)
Description: (§1) Representative examples of the invention were tested for antitumor activity in mice according to the following procedure:
(§2) The animals were pooled, implanted subcutaneously with 30 to 60 mg tumor fragments by 12-gauge trocar, and again pooled before unselective distribution to the various treatment and control groups. For early-stage treatment, chemotherapy was started within 1 to 5 days after tumor implantation while the number of cells was relatively small (10^7 to 10^8 cells). For advanced-stage treatment, chemotherapy was delayed until the tumor became relatively large (200 to 300 mg in size). A 300-mg tumor contains approximately 3×10^8 total cells. […] Tumors were measured with a caliper weekly (or twice weekly for the more rapidly growing tumors). Mice were sacrificed when their tumors reached 1500 mg (i.e., before they can cause the animal discomfort). Tumor weights were estimated from two-dimensional measurements.
(§3) The treatment and control groups were measured when the control group tumors reached approximately 700 to 1200 mg in size (Median of Group). The median tumor weight of each group was determined (including zeros). […] A T/C value <10% is considered to indicate highly significant antitumor activity.
(§4) The results are shown in Table I for pancreatic ductal adenocarcinoma #03 and in Table 2 for colon adenocarcinoma #38.

[3] = tested on: Mammary Adenocarcinoma 16/C/RP; assay: antitumor activity in mice against Mammary Adenocarcinoma 16/C/RP
Description: as §1
The animals were pooled, implanted subcutaneously with 30 to 60 mg tumor fragments by 12-gauge trocar, and again pooled before unselective distribution to the various treatment and control groups. For early-stage treatment, chemotherapy was started within 1 to 5 days after tumor implantation while the number of cells was relatively small (10^7 to 10^8 cells). For advanced-stage treatment, chemotherapy was delayed until the tumor became relatively large (200 to 300 mg in size). A 300-mg tumor contains approximately 3×10^8 total cells. Tumors within a given advanced-stage trial were within a 2.5-fold size range for 90% of the animals. Tumors were measured with a caliper weekly (or twice weekly for the more rapidly growing tumors). Mice were sacrificed when their tumors reached 1500 mg (i.e., before they can cause the animal discomfort). Tumor weights were estimated from two-dimensional measurements.
The treatment and control groups were measured when the control group tumors reached approximately 700 to 1200 mg in size (Median of Group). The median tumor weight of each group was determined (including zeros). The T/C value (weight of treated tumors over the weight of control tumors) in percent is an indication of antitumor effectiveness: A T/C equal to or less than 42% is considered significant antitumor activity by the Drug Evaluation Branch of the Division of Cancer Treatment (NCl). A T/C value <10% is considered to indicate highly significant antitumor activity. A body weight loss nadir (mean of group) of greater than 20% or greater than 20% drug-deaths is considered to indicate an excessively toxic dosage.

colon adenocarcinoma #38 = assay: antitumor activity in mice against colon adenocarcinoma #38; conditions: for Drug Deaths / Weight Loss: Table 2
Description: as §1, §2, §3, §4

[4] = 10^6 cells, 112 mg/kg total, i.v.→p.o. days 1, 4
[5] = 10^6 cells, 248 mg/kg total, i.v.→p.o. days 1, 4
[6] = 10^5 cells, 200 mg/kg total, i.v. 3 hour infusion days 1, 4
[7] = 10^5 cells, 320 mg/kg total, i.v. 3 hour infusion days 1, 4
[8] = 10^5 cells, 520 mg/kg total, i.v. 3 hour infusion days 1, 4
[9] = Mus musculus, ip, read-out: T/C
[10] = i.p., total dose mg/kg by Example: 10:340, 11:518
[11] = p.o., total dose mg/kg by Example: 10:460, 11:885
[12] = p.o., total dose mg/kg by Example: 10:740, 11:1709
[13] = Table 1, average body weight 25 g, total doses as in E1
[14] = 10^5 cells, 150 mg/kg total, i.v. 3 hour infusion days 1, 4
[15] = 10^5 cells, 300 mg/kg total, i.v. 3 hour infusion days 1, 4
[16] = 10^5 cells, 450 mg/kg total, i.v. 3 hour infusion days 1, 4
[17] = total dose 327 mg/kg, i.v. days 3-6 and p.o. days 7-10
[18] = total dose 529 mg/kg, i.v. days 3-6 and p.o. days 7-10
[19] = total dose 852 mg/kg, i.v. days 3-6 and p.o. days 7-10
[20] = 10^6 cells, 280 mg/kg total, i.v. 3 hour infusion day 1
[21] = 10^6 cells, 450 mg/kg total, i.v. 3 hour infusion day 1
[22] = 400 mg/kg total, i.v. infusion days 1, 4
[23] = 600 mg/kg total, i.v. infusion days 1, 4
[24] = 900 mg/kg total, i.v. infusion days 1, 4
[25] = 10^6 cells, 76 mg/kg total, i.v. […] infusion day 1
[26] = 10^6 cells, 123 mg/kg total, i.v. […] infusion day 1
[27] = 10^6 cells, 198 mg/kg total, i.v. […] infusion day 1
[28] = 10^6 cells, 320 mg/kg total, i.v. […] infusion day 1

## CCN(CC)CCNc1ccc(CNS(C)(=O)=O)c2sc3ccc(OC)cc3c(=O)c12 [31(c)]
[1]; [4]
  % ILS (percentage increase in lifespan): 0%
  Log10 Tumor cell kill: 0
  Wt. Loss at Nadir: -2.7 g/mouse
[1]; [5]
  % ILS (percentage increase in lifespan): 0%
  Log10 Tumor cell kill: 0
  Wt. Loss at Nadir: -3.0 g/mouse
[1]; mouse, in vivo, 112 mg/kg
  Drug Deaths: 0/6
[1]; mouse, in vivo, 248 mg/kg
  Drug Deaths: 1/6
[2]
  T/C: 0%
[2]; Table 1, total doses as in E1
  Drug Deaths: 0
[2]; mouse, in vivo
  Weight Loss: 5.6 g
[3]; 109.6 mg/kg total, i.v. 2X/day, days 3-6
  T/C Value: 6%
[3]; 156.8 mg/kg total, i.v. 2X/day, days 3-6
  T/C Value: 5%
[3]; 224 mg/kg total, i.v. 2X/day, days 3-6
  T/C Value: 0%
[3]; mouse, in vivo
  Drug Deaths: 0

## CCN(CC)CCNc1ccc(CNC(C)=O)c2sc3ccccc3c(=O)c12 [Example 10, N-[[1-[[2-(Diethylamino)ethyl]amino]-9-oxo-thioxanthen-4-yl]methyl]acetamide]
[1]; [6]
  Drug Deaths: 0/7
  Wt. Loss at Nadir: -1.5 g/mouse
[1]; [7]
  Drug Deaths: 0/5
  Wt. Loss at Nadir: -1.75 g/mouse
[1]; [8]
  Drug Deaths: 3/7
  Wt. Loss at Nadir: -3.75 g/mouse
[1]; iv, 200 mg/kg
  Tumor Cell: 0/7
[1]; iv, 200 mg/kg, 3 h
  % ILS (percentage increase in lifespan): 8%
  Log10 Tumor cell kill: 0.5
[1]; iv, 320 mg/kg
  Tumor Cell: 0/5
[1]; iv, 320 mg/kg, 3 h
  % ILS (percentage increase in lifespan): 23%
  Log10 Tumor cell kill: 1.5
[1]; iv, 520 mg/kg, 3 h
  % ILS (percentage increase in lifespan): 54%
  Log10 Tumor cell kill: 3.5
Colon adenocarcinoma #38; [9]
  response vs control in vivo at 160 mg/kg: 22%
  response vs control in vivo at 200 mg/kg: 24%
  response vs control in vivo at 865 mg/kg: 23%
Colon adenocarcinoma #38; [10]
  Drug Deaths: 0
  Weight Loss: 4.0 g
Colon adenocarcinoma #38; [11]
  Drug Deaths: 0
  Weight Loss: 1.2 g
Colon adenocarcinoma #38; [12]
  Drug Deaths: 2/5
  Weight Loss: 4.0 g
Colon adenocarcinoma #38; total dose 160 mg/kg i.p.
  Drug Deaths: 0
  Weight Loss: 0.6 g
Colon adenocarcinoma #38; total dose 200 mg/kg i.p.
  Drug Deaths: 0
  Weight Loss: 2.3 g
Colon adenocarcinoma #38; total dose 865 mg/kg i.p.
  Drug Deaths: 0
  Weight Loss: 2.0 g
[2]; [13]
  Weight Loss: 2.4 g
[2]; Table 1, total doses as in E1
  Drug Deaths: 0

## CCN(C=O)Cc1ccc(NCCN(CC)CC)c2c(=O)c3ccccc3sc12 [Example 13, N-[[1-[[2-(Diethylamino)ethyl]amino]-9-oxothioxanthen-4-yl]methyl]-N-ethylformamide]
[1]; [14]
  Drug Deaths: 0/8
  Wt. Loss at Nadir: -1.75 g/mouse
[1]; [15]
  Drug Deaths: 0/7
  Wt. Loss at Nadir: -1.75 g/mouse
[1]; [16]
  Drug Deaths: 2/7
  Wt. Loss at Nadir: -3.0 g/mouse
[1]; iv, 150 mg/kg, 3 h
  % ILS (percentage increase in lifespan): 8%
  Log10 Tumor cell kill: 0.5
[1]; iv, 300 mg/kg
  Tumor Cell: 0/7
[1]; iv, 300 mg/kg, 3 h
  % ILS (percentage increase in lifespan): 15%
  Log10 Tumor cell kill: 1.0
[1]; iv, 450 mg/kg
  Tumor Cell: 0/7
[1]; iv, 450 mg/kg, 3 h
  % ILS (percentage increase in lifespan): 38%
  Log10 Tumor cell kill: 2.5
[2]
  T/C: 0%
[2]; [13]
  Weight Loss: 2.4 g
[2]; Table 1, total doses as in E1
  Drug Deaths: 0

## CCN(CC)CCNc1ccc(CN(CC)S(C)(=O)=O)c2sc3ccccc3c(=O)c12 [Example 25, N-[[1-[[2-(Diethylamino)ethyl]amino]-9-oxothioxanthen-4-yl]methyl]-N-ethyl-methanesulfonamide]
Colon adenocarcinoma #38; Mus musculus, read-out: T/C
  response vs control in vivo at 327 mg/kg: 0%
  response vs control in vivo at 529 mg/kg: 0%
  response vs control in vivo at 852 mg/kg: 0%
Colon adenocarcinoma #38; [17]
  Drug Deaths: 0
  Weight Loss: 0.8 g
Colon adenocarcinoma #38; [18]
  Drug Deaths: 0
  Weight Loss: 0.6 g
Colon adenocarcinoma #38; [19]
  Drug Deaths: 4/5
  Weight Loss: 4.8 g
[2]
  T/C: 0%
[2]; [13]
  Weight Loss: 4.6 g
[2]; Table 1, total doses as in E1
  Drug Deaths: 0

## CCN(CC)CCNc1ccc(CNC)c2sc3ccc(OC)cc3c(=O)c12 [Example 30(h), 1-[[2-(Diethylamino)ethyl]amino]-4-[(methylamino)methyl]-7-methoxy-thioxanthen-9-one]
[1]; [20]
  Drug Deaths: 0/7
  Wt. Loss at Nadir: -1.7 g/mouse
[1]; [21]
  Drug Deaths: 0/7
  Wt. Loss at Nadir: -2.3 g/mouse
[1]; iv, 280 mg/kg
  % ILS (percentage increase in lifespan): 69%
  Log10 Tumor cell kill: 6.0
  Tumor Cell: 2/7
[1]; iv, 450 mg/kg
  % ILS (percentage increase in lifespan): 62%
  Log10 Tumor cell kill: 5.3
  Tumor Cell: 0/7
[2]
  T/C: 0%
[2]; [13]
  Weight Loss: 1.4 g
[2]; Table 1, total doses as in E1
  Drug Deaths: 0
[3]; [22]
  Drug Deaths: 0/5
  T/C Value: 46%
  Wt. Loss at Nadir: -1.0 g/mouse
[3]; [23]
  Drug Deaths: 0/5
  T/C Value: 23%
  Wt. Loss at Nadir: -0.7 g/mouse
[3]; [24]
  Drug Deaths: 1/6
  T/C Value: 29%
  Wt. Loss at Nadir: 0 g/mouse

## CCN(CC)CCNc1ccc(CNC(=O)OC)c2sc3ccccc3c(=O)c12 [Example 34, Methyl N-[[1-[[2-(diethylamino)ethyl]amino]-9-oxothioxanthen-4-yl]methyl]carbamate]
[1]; [25]
  Drug Deaths: 0/5
  Wt. Loss at Nadir: -0.4 g/mouse
[1]; [26]
  Drug Deaths: 0/5
  Wt. Loss at Nadir: -1.2 g/mouse
[1]; [27]
  Drug Deaths: 0/5
  Wt. Loss at Nadir: -1.2 g/mouse
[1]; [28]
  % ILS (percentage increase in lifespan): toxic
  Drug Deaths: 5/5
  Log10 Tumor cell kill: LD100
  Wt. Loss at Nadir: -3.6 g/mouse
[1]; iv, 76 mg/kg
  % ILS (percentage increase in lifespan): 0%
  Log10 Tumor cell kill: 0
  Tumor Cell: 0/5
[1]; iv, 123 mg/kg
  % ILS (percentage increase in lifespan): 8.3%
  Log10 Tumor cell kill: 0.7
  Tumor Cell: 0/5
[1]; iv, 198 mg/kg
  % ILS (percentage increase in lifespan): 41.7%
  Log10 Tumor cell kill: 3.3
  Tumor Cell: 0/5
[1]; iv, 320 mg/kg
  Tumor Cell: 0/5
[2]; [13]
  Weight Loss: 3.6 g
[2]; Table 1, total doses as in E1
  Drug Deaths: 0
